Values after ≈ are worked out from the molar mass of the structure shown. Read-outs that look alike come from different tables or passages of the source.
How the values were obtained:
Proteus Mirabilis A 235 = assay: Experimental infection of Proteus Mirabilis in mice; format: in vivo
Procedure: Groups of 10 mice with an average weight of 22 g received intraperitoneally 0.5 ml of a 24 hour old culture in oxoid bouillon of Proteus Mirabilis A 235 diluted 1/4 with distilled water. The mice then received subcutaneously the compound of Examples 11 or 15 one hour and 5 and 24 hours after the infection and the results are reported in the following Table.

[1] = test system: Staphylococcus aureus UC 1 128 Pen-Resistant; assay: MIC, dilution in liquid medium; format: cell-based; settings: for MIC: Staphylococcus aureus
Procedure: (§1) The method used was a dilution of a liquid medium where a series of tubes received the same quantity of a sterile nutritive media and increasing doses of the test compounds were placed therein. Then each tube was seeded with a bacterial strain and was incubated for 24 to 48 hours at 37° C. in an oven. The increasing inhibition was determined by transillumination to determine the minimum inhibiting concentration (MIC in […]) and the results are reported in the following Tables.

[2] = test system: Proteus mirabilis (indol-) A 235; assay: MIC, dilution in liquid medium; format: cell-based; settings: Proteus mirabilis, read-out: M.I.C.
Procedure: as §1

[3] = test system: Staphylococcus aureus ATCC 5 638 Pen-Sensible = UC 1061; assay: MIC, dilution in liquid medium; format: cell-based; settings: 24 h
Procedure: as §1

[4] = test system: Bacillus subtilis ATCC 6 633; assay: MIC, dilution in liquid medium; format: cell-based; settings: for MIC: Bacillus subtilis, read-out: M.I.C.
Procedure: as §1

[5] = test system: Streptococcus faecalis 99 F 74; assay: MIC, dilution in liquid medium; format: cell-based; settings: Enterococcus faecalis, 99F74, 48 h, 48 H
Procedure: as §1

[6] = test system: Serratia Resistant Gentamicine 2 532; assay: MIC, dilution in liquid medium; format: cell-based; settings: 24 h
Procedure: as §1

[7] = test system: Streptococcus faecalis 5 432; assay: MIC, dilution in liquid medium; format: cell-based; settings: Enterococcus faecalis, 5432, 48 h
Procedure: as §1

[8] = test system: Escherichia Coli Resistant Gentamicine, Tobramycine R 55 123 D; assay: MIC, dilution in liquid medium; format: cell-based; settings: Escherichia coli
Procedure: as §1

[9] = test system: Escherichia Coli Resistant Tetracycline ATCC 11 303 = UC 1261; assay: MIC, dilution in liquid medium; format: cell-based; settings: Escherichia coli, 24 h
Procedure: as §1

[10] = test system: Streptococcus pyogenes A 561; assay: MIC, dilution in liquid medium; format: cell-based; settings: Streptococcus pyogenes, read-out: M.I.C.
Procedure: as §1

[11] = test system: Proteus vulgaris (indol+) A 232; assay: MIC, dilution in liquid medium; format: cell-based; settings: for MIC: Proteus vulgaris
Procedure: as §1

Providencia Du 48 = assay: MIC, dilution in liquid medium; format: cell-based; settings: Providencia
Procedure: as §1

[12] = test system: Klebsiella pneumoniae Exp. 52 145; assay: MIC, dilution in liquid medium; format: cell-based; settings: Klebsiella pneumoniae, read-out: M.I.C.
Procedure: as §1

[13] = test system: Salmonella typhimurium 420; assay: MIC, dilution in liquid medium; format: cell-based; settings: for MIC: Salmonella enterica, TYPHIMURIUM
Procedure: as §1

[14] = test system: Escherichia Coli Exp. TO26 B6; assay: MIC, dilution in liquid medium; format: cell-based
Procedure: as §1

[15] = test system: Staphylococcus aureus exp. n° 54 146; assay: MIC, dilution in liquid medium; format: cell-based; settings: Staphylococcus aureus, 24 h
Procedure: as §1

[16] = test system: Klebsiella pneumoniae 2 536 Resistant Gentamicine; assay: MIC, dilution in liquid medium; format: cell-based; settings: Klebsiella pneumoniae
Procedure: as §1

[17] = test system: Escherichia Coli Sensible Tetracycline ATCC 9 637 = 1020; assay: MIC, dilution in liquid medium; format: cell-based; settings: for MIC: Escherichia coli
Procedure: as §1

[18] = test system: Pseudomonas 3 935 Exp. SG; assay: MIC, dilution in liquid medium; format: cell-based; settings: for MIC: Pseudomonas, 3935EXP.SG
Procedure: as §1

CCO/N=C(\C(=O)N[C@@H]1C(=O)N2C(C(=O)O)=C(COC(C)=O)CS[C@H]12)c1csc(N)n1 [Example 11, 3-acetoxymethyl-7-[2-(2-amino-4-thiazolyl)-2-ethoxyiminoacetamido]-ceph-3-eme-4-carboxylic acid]
MORTALITY AFTER 21H30 (Proteus Mirabilis A 235; 0.025 mg subcutaneously): 3 | MORTALITY AFTER 22H15 (Proteus Mirabilis A 235; 0.025 mg subcutaneously): 1 | MORTALITY AFTER 24H20 (Proteus Mirabilis A 235; 0.025 mg subcutaneously): 1 | MORTALITY AFTER 28H (Proteus Mirabilis A 235; 0.025 mg subcutaneously): 2 | MORTALITY AFTER 46H (Proteus Mirabilis A 235; 0.025 mg subcutaneously): 2 | MORTALITY AFTER 53H (Proteus Mirabilis A 235; 0.025 mg subcutaneously): 1 | Mice Alive on the 8th day (Proteus Mirabilis A 235; 0.025 mg subcutaneously): 0/10 | MORTALITY AFTER 22H15 (Proteus Mirabilis A 235; 0.05 mg subcutaneously): 1 | MORTALITY AFTER 24H20 (Proteus Mirabilis A 235; 0.05 mg subcutaneously): 1 | MORTALITY AFTER 31H45 (Proteus Mirabilis A 235; 0.05 mg subcutaneously): 1 | MORTALITY AFTER 70H (Proteus Mirabilis A 235; 0.05 mg subcutaneously): 2 | Mice Alive on the 8th day (Proteus Mirabilis A 235; 0.05 mg subcutaneously): 5/10 | MORTALITY AFTER 28H (Proteus Mirabilis A 235; 0.1 mg subcutaneously): 1 | MORTALITY AFTER 46H (Proteus Mirabilis A 235; 0.1 mg subcutaneously): 2 | Mice Alive on the 8th day (Proteus Mirabilis A 235; 0.1 mg subcutaneously): 7/10 | Mice Alive on the 8th day (Proteus Mirabilis A 235; 0.25 mg subcutaneously): 10/10 | Mice Alive on the 8th day (Proteus Mirabilis A 235; 0.5 mg subcutaneously): 10/10 | Mice Alive on the 8th day (Proteus Mirabilis A 235; 1 mg subcutaneously): 10/10 | M.I.C. ([1]; 24 H): 3 µg/mL | M.I.C. ([1]; 48 H): 5 µg/mL | MIC ([1]; UC1, 24 h, 24 H): 2 µg/mL (≈ 4.26 µM) | MIC ([1]; UC1, 48 h, 48 H): 3 µg/mL (≈ 6.39 µM) | MIC ([2]; 24 h): 0.5 µg/mL (≈ 1.06 µM) | MIC ([2]; 48 h): 0.5 µg/mL (≈ 1.06 µM) | MIC [3]: 2 µg/mL (≈ 4.26 µM) | M.I.C. ([4]; 24 H): 0,5 μg/ml | MIC ([4]; ATCC6, 24 h, 24 H): 0.4 µg/mL (≈ 0.852 µM) | MIC ([4]; ATCC6, 48 h, 48 H): 0.4 µg/mL (≈ 0.852 µM) | MIC [5]: 20 µg/mL (≈ 42.6 µM) | MIC [6]: 2 µg/mL (≈ 4.26 µM) | MIC ([7]; 48 H): 40 µg/mL (≈ 85.2 µM) | MIC ([7]; read-out: M.I.C.): 10 µg/mL (≈ 21.3 µM) | MIC ([8]; 24 h): 1 µg/mL (≈ 2.13 µM) | MIC ([8]; 24 h, read-out: M.I.C.): 0.6 µg/mL (≈ 1.28 µM) | MIC ([8]; 48 h): 1 µg/mL (≈ 2.13 µM) | MIC ([8]; 48 h, read-out: M.I.C.): 0.6 µg/mL (≈ 1.28 µM) | MIC [9]: ≤ 0.2 µg/mL | MIC ([9]; read-out: M.I.C.): 0.5 µg/mL (≈ 1.06 µM) | MIC ([10]; A561, 24 h, 24 H): 0.02 µg/mL (≈ 0.0426 µM) | MIC ([10]; A561, 48 h, 48 H): 0.02 µg/mL (≈ 0.0426 µM) | M.I.C. ([11]; 48 H): 1 µg/mL | MIC ([11]; 24 h, read-out: M.I.C.): 0.5 µg/mL (≈ 1.06 µM) | MIC ([11]; 48 h): 2 µg/mL (≈ 4.26 µM) | MIC (Providencia Du 48; DU48, 24 h, 24 H): 5 µg/mL (≈ 10.6 µM) | MIC (Providencia Du 48; DU48, 48 h, 48 H): 5 µg/mL (≈ 10.6 µM) | MIC ([12]; EXP.52145, 24 h, 24 H): 0.2 µg/mL (≈ 0.426 µM) | MIC ([12]; EXP.52145, 48 h, 48 H): 0.2 µg/mL (≈ 0.426 µM) | M.I.C. ([13]; 24 H): 2 µg/mL | M.I.C. ([13]; 48 H): 2 µg/mL | MIC ([13]; 24 h): 1 µg/mL (≈ 2.13 µM) | MIC ([13]; 48 h): 1 µg/mL (≈ 2.13 µM) | M.I.C. ([14]; 24 H): 0.4 µg/mL | M.I.C. ([14]; 48 H): 0.4 µg/mL | MIC [15]: 2 µg/mL (≈ 4.26 µM) | MIC ([16]; 24 h): 2 µg/mL (≈ 4.26 µM) | MIC ([16]; 24 h, read-out: M.I.C.): 10 µg/mL (≈ 21.3 µM) | MIC ([16]; 48 h): 2 µg/mL (≈ 4.26 µM) | MIC ([16]; 48 h, read-out: M.I.C.): 10 µg/mL (≈ 21.3 µM) | M.I.C. ([17]; 24 H): 2 µg/mL | M.I.C. ([17]; 48 H): 2 µg/mL | MIC ([17]; ATCC9, 24 h, 24 H): 1 µg/mL (≈ 2.13 µM) | MIC ([17]; ATCC9, 48 h, 48 H): 1 µg/mL (≈ 2.13 µM) | M.I.C. ([18]; 24 H): 40 µg/mL | MIC ([18]; 24 h): 20 µg/mL (≈ 42.6 µM) | MIC ([18]; 48 h): 40 µg/mL (≈ 85.2 µM)

Source: US4196205A, “3-Acetoxymethyl-7-(iminoacetamido)-cephalosporanic acid derivatives” (priority 1976, dated 1980)
